Measurements reported in patent EP1344776A1, “5- 2-hydroxy-3-[1-(3-trifluoromethylphenyl)-cyclopropyl]-propionylamino -phtalide and 6- 2-hydroxy-3-[1-(3-trifluoromethylphenyl)-cyclopropyl]-propionylamino -4-methyl-2,3-benzoxazin-1-one derivatives with progesterone receptor modulating activity for use in fertility control, hormone replacement …” (Schering Aktiengesellschaft, priority 2002, dated 2003).

Key:
[1] = system: rat mammary epithelium; experiment: Bioassay on proliferating/differentiating effects in the rat mammary epithelium (whole mount staining); type: in vivo
Description: The object of this test is to evaluate the effect of progestins on the development of the mammary gland, in particular on the formation of terminal end buds in the mammary gland in estrogen primed rats.
Premature female rats (Wistar Han, SPF) are ovariectomized at the age of 21 days, 4 to 6 days before treatment start. The animals are treated for 6 days with standard estrogen (estrone, 70 µg/kg) and the test progestin (application volume: 0.1 ml/50g body weight; vehicle: benzylbenzoate/castor oil (1+4 v/v); subcutaneous). Control groups are e.g.: vehicle, estrone without progestin, estradiol together with a known progestin, e.g. R5020 (promegestone). After the 6-day treatment the animals are killed with carbon dioxide.
For the whole mount staining, animals are shaved in the left abdominal inguinal mammary region, which is cut from the body together with the skin. For the histological/immunohistochemical analyses the right abdominal inguinal mammary gland is cut from the body together with the connective tissue adhered thereto and fixed in 3.7 % formalin in PBS (phosphate buffer saline; without Ca^2+/Mg^2+).
The preparations are fixed over night in alcohol-formalin according to the method of Tellyesniczky (see below). Then the mammary gland tissue and subcutis adhered thereto are stripped from the cutis and the preparations are again fixed over night. The further steps are as follows: ethanol 70 %: 1.5 hours; acetone: 3 × 1.5 hours; acetone: over night; isopropanol: 1.5 hours; ethanol 96 %: 2 hours; hematoxylin-iron: 3 hours; VE water: first rinse the preparations and then 2 × 0.5 hours; ethanol 70 %: over night; ethanol 80 %: 1.5 hours; ethanol 96 %: 1.5 hours; isopropanol: 1.5 hours. The preparations are then moved to petri dishes and left in toluene for approximately 1 hour, i.e. until they have stopped to swim up. Then the preparations are treated with cedarwood oil (Merck, no. 1.06965). The incubation times above are minimum times and can be extended. In particular, incubation in ethanol 70 % after fixation can be extended to at least 2.5 weeks.
Preparation of the solutions necessary for the whole mount staining: • a) Alcohol-formalin according to Tellyesniczky: formaldehyde 37%: 81.8 ml, ethanol 70 %: 1636 ml, glacial acetic acid (to be added shortly before use): 81.8 ml (total: 1800 ml). • b) Hematoxylin mother solution: Hematoxylin (Merck, no. 1.15938): 10 g, ethanol 96 %: 100 ml. The solution must stand for 48 hours at 37 °C before use. It can be kept in a dark place for almost unlimited time. • c) Hematoxylin-iron solution for use: hematoxylin mother solution (filtered): 15.2 ml, ethanol 96 %: 1374 ml, FeCl3 x 6 H2O (s. 4): 91.1 ml, 1 mol/l HCl: 220 ml (total: 1700 ml); adjustment to a pH of 1.25 with 2mol/l NaOH. • d) FeCl3 x 6 H2O solution: FeCl3 x 6 H2O (Merck, no. 1.03943): 1.07 g, VE water: 90.2 ml, HCl: 37 %: 0.92 ml (total: 91.1 ml).
By means of a 40-fold magnification, the terminal end buds near the nipple in direction of the tail are counted. The area to be investigated should be about 1.8 mm^2. For well-differentiated preparations this area may be reduced, with at least 250 buds to be counted. After counting, the number of end buds per 1 mm^2 is calculated. […]

[2] = biological target: T1, mineralocorticoid receptor (MR) (Homo sapiens, UniProt P08235); experiment: Mineralocorticoid receptor binding; conditions: in vitro
T1 sequence (P08235 1-984): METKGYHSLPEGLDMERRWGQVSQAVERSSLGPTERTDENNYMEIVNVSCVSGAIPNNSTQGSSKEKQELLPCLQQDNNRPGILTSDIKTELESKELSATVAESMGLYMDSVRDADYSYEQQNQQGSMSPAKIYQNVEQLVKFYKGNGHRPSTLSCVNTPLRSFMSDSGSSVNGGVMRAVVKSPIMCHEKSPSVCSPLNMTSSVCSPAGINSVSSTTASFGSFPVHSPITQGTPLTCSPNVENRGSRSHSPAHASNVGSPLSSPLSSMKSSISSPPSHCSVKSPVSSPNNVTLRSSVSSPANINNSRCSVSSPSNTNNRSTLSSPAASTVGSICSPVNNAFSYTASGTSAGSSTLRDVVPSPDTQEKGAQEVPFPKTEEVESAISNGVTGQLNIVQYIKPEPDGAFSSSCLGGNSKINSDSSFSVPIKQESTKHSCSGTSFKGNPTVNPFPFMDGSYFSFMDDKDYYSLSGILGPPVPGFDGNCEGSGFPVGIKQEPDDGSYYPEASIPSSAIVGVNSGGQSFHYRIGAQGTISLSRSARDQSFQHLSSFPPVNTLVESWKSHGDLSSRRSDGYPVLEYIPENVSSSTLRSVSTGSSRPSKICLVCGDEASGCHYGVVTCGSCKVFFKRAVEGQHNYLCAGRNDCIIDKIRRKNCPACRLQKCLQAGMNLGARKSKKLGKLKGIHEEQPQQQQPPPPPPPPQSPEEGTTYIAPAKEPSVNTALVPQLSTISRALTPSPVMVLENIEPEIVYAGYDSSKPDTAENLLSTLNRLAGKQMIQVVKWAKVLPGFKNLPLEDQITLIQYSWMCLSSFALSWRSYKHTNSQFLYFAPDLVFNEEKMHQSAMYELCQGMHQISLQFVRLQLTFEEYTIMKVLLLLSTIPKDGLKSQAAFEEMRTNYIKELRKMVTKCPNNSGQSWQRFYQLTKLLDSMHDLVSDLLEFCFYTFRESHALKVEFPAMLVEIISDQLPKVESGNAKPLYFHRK

[3] = Glucocorticoid / anti-glucocorticoid activity in vivo (changes in thymus weight); conditions: concluded from changes in thymus weight

O=C1OCc2cc(NC(=O)C(O)(CC3(c4cc(C(F)(F)F)ccc4F)CC3)C(F)(F)F)ccc21 (single isomer, unassigned; (+)) [((+)-1), (+)-5-{2-hydroxy-3-[1-(2-fluoro-5-trifluoromethylphenyl)-cyclopropyl]-2-trifluoromethyl-propionylamino}-phthalide]
Mammary gland, whole mount staining (rat) [equi-efficient dose], factor compared to R5020 ([1]; median of three independent tests): ca. 1
effects at the mammary gland ([1]; rat, amount suitable for maintaining pregnancy): no effects at the mammary gland are observed
Mammary gland, whole mount staining (rat) [equi-efficient dose] ([1]; terminal end buds, dose pair with 0.1 mg/kg R5020, independent test): 0.03 mg/kg
affinity for the mineralocorticoid receptor (MR) [2]: negligible
glucocorticoid or anti-glucocorticoid activity in vivo [3]: does not seem to exhibit any glucocorticoid or any anti-glucocorticoid activity
